ChEMBL document CHEMBL5113478, “7-Azaindole, 2,7-diazaindole, and 1H-pyrazole as core structures for novel anticancer agents with potential chemosensitizing properties” (Eur J Med Chem, 2022)

Assays:
Format in all cases: functional
MCF7 [1] = experiment: Antiproliferative activity against human MCF7 cells assessed as […] cell proliferation at 10 uM incubated for 48 hrs by WST-1 assay relative to control
MOLT-4 [2] = experiment: Antiproliferative activity against human MOLT-4 cells assessed as […] cell proliferation at 10 uM incubated for 48 hrs in presence of 2 uM of CDDP by WST-1 assay relative to control
HT-29 [3] = experiment: Antiproliferative activity against human HT-29 cells assessed as […] cell proliferation at 10 uM incubated for 48 hrs in presence of 15 uM of CDDP by WST-1 assay relative to control
A2780 [4] = experiment: Antiproliferative activity against human A2780 cells assessed as […] cell proliferation at 10 uM incubated for 48 hrs in presence of 2 uM of CDDP by WST-1 assay relative to control
HeLa [5] = experiment: Antiproliferative activity against human HeLa cells assessed as […] cell proliferation at 10 uM incubated for 48 hrs in presence of 15 uM of CDDP by WST-1 assay relative to control
A549 [6] = experiment: Antiproliferative activity against human A549 cells assessed as […] cell proliferation at 10 uM incubated for 48 hrs by WST-1 assay relative to control
Jurkat [7] = experiment: Antiproliferative activity against human Jurkat cells assessed as […] cell proliferation at 10 uM incubated for 48 hrs in presence of 2 uM of CDDP by WST-1 assay relative to control
HeLa [8] = experiment: Antiproliferative activity against human HeLa cells assessed as […] cell proliferation at 10 uM incubated for 48 hrs by WST-1 assay relative to control
SAOS-2 [9] = experiment: Antiproliferative activity against human SAOS-2 cells assessed as […] cell proliferation at 10 uM incubated for 48 hrs in presence of 15 uM of CDDP by WST-1 assay relative to control
SAOS-2 [10] = experiment: Antiproliferative activity against human SAOS-2 cells assessed as […] cell proliferation at 10 uM incubated for 48 hrs by WST-1 assay relative to control
PANC-1 [11] = experiment: Antiproliferative activity against human PANC-1 cells assessed as […] cell proliferation at 10 uM incubated for 48 hrs in presence of 15 uM of CDDP by WST-1 assay relative to control
A2780 [12] = experiment: Antiproliferative activity against human A2780 cells assessed as […] cell proliferation at 10 uM incubated for 48 hrs by WST-1 assay relative to control
Jurkat [13] = experiment: Antiproliferative activity against human Jurkat cells assessed as […] cell proliferation at 10 uM incubated for 48 hrs by WST-1 assay relative to control
PANC-1 [14] = experiment: Antiproliferative activity against human PANC-1 cells assessed as […] cell proliferation at 10 uM incubated for 48 hrs by WST-1 assay relative to control
MOLT-4 [15] = experiment: Antiproliferative activity against human MOLT-4 cells assessed as […] cell proliferation at 10 uM incubated for 48 hrs by WST-1 assay relative to control
A549 [16] = experiment: Antiproliferative activity against human A549 cells assessed as […] cell proliferation at 10 uM incubated for 48 hrs in presence of 15 uM of CDDP by WST-1 assay relative to control
MCF7 [17] = experiment: Antiproliferative activity against human MCF7 cells assessed as […] cell proliferation at 10 uM incubated for 48 hrs in presence of 10 uM of CDDP by WST-1 assay relative to control
HT-29 [18] = experiment: Antiproliferative activity against human HT-29 cells assessed as […] cell proliferation at 10 uM incubated for 48 hrs by WST-1 assay relative to control

CC(C)S(=O)(=O)c1ccc(-c2cnc3[nH]nc(C(=O)NCc4ccccc4)c3c2)cc1
90%: Activity (MCF7 [1]) | Activity (A549 [6]) | Activity (HeLa [8]) | Activity (SAOS-2 [10]) | Activity (A2780 [12]) | Activity (Jurkat [13]) | Activity (PANC-1 [14]) | Activity (MOLT-4 [15]) | Cell viability relative to control (HT-29 [18])
60%: Activity (MOLT-4 [2]) | Activity (HT-29 [3]) | Activity (A2780 [4]) | Activity (HeLa [5]) | Activity (Jurkat [7]) | Activity (SAOS-2 [9]) | Activity (PANC-1 [11]) | Activity (A549 [16]) | Activity (MCF7 [17])

CC(C)S(=O)(=O)c1ccc(-c2cc(-c3nnc(-c4ccccc4)o3)n[nH]2)cc1
64%: Activity (MOLT-4 [2]) | Activity (HT-29 [3]) | Activity (A2780 [4]) | Activity (HeLa [5]) | Activity (Jurkat [7]) | Activity (SAOS-2 [9]) | Activity (PANC-1 [11]) | Activity (A549 [16]) | Activity (MCF7 [17])
98%: Activity (MCF7 [1]) | Activity (A549 [6]) | Activity (HeLa [8]) | Activity (SAOS-2 [10]) | Activity (A2780 [12]) | Activity (Jurkat [13]) | Activity (PANC-1 [14]) | Activity (MOLT-4 [15]) | Cell viability relative to control (HT-29 [18])

CS(=O)(=O)c1ccc(-c2cnc3[nH]c(C(=O)N4CCC(c5ccccc5)CC4)cc3c2)cc1
93%: Activity (MCF7 [1]) | Activity (A549 [6]) | Activity (HeLa [8]) | Activity (SAOS-2 [10]) | Activity (A2780 [12]) | Activity (Jurkat [13]) | Activity (PANC-1 [14]) | Activity (MOLT-4 [15]) | Cell viability relative to control (HT-29 [18])
66%: Activity (MOLT-4 [2]) | Activity (HT-29 [3]) | Activity (A2780 [4]) | Activity (HeLa [5]) | Activity (Jurkat [7]) | Activity (SAOS-2 [9]) | Activity (PANC-1 [11]) | Activity (A549 [16]) | Activity (MCF7 [17])

CCN1CCN(C2CCN(C(=O)c3cc4cc(-c5ccc(S(C)(=O)=O)cc5)cnc4[nH]3)CC2)CC1
67%: Activity (MOLT-4 [2]) | Activity (HT-29 [3]) | Activity (A2780 [4]) | Activity (HeLa [5]) | Activity (Jurkat [7]) | Activity (SAOS-2 [9]) | Activity (PANC-1 [11]) | Activity (A549 [16]) | Activity (MCF7 [17])
96%: Activity (MCF7 [1]) | Activity (A549 [6]) | Activity (HeLa [8]) | Activity (SAOS-2 [10]) | Activity (A2780 [12]) | Activity (Jurkat [13]) | Activity (PANC-1 [14]) | Activity (MOLT-4 [15]) | Cell viability relative to control (HT-29 [18])

CC(C)S(=O)(=O)c1ccc(-c2cc(-c3nc(-c4ccccc4)no3)n[nH]2)cc1
62%: Activity (MOLT-4 [2]) | Activity (HT-29 [3]) | Activity (A2780 [4]) | Activity (HeLa [5]) | Activity (Jurkat [7]) | Activity (SAOS-2 [9]) | Activity (PANC-1 [11]) | Activity (A549 [16]) | Activity (MCF7 [17])
101%: Activity (MCF7 [1]) | Activity (A549 [6]) | Activity (HeLa [8]) | Activity (SAOS-2 [10]) | Activity (A2780 [12]) | Activity (Jurkat [13]) | Activity (PANC-1 [14]) | Activity (MOLT-4 [15]) | Cell viability relative to control (HT-29 [18])

CS(=O)(=O)c1ccc(-c2cnc3[nH]nc(C(=O)N4CCC(c5ccccc5)CC4)c3c2)cc1
71%: Activity (MOLT-4 [2]) | Activity (HT-29 [3]) | Activity (A2780 [4]) | Activity (HeLa [5]) | Activity (Jurkat [7]) | Activity (SAOS-2 [9]) | Activity (PANC-1 [11]) | Activity (A549 [16]) | Activity (MCF7 [17])
92%: Activity (MCF7 [1]) | Activity (A549 [6]) | Activity (HeLa [8]) | Activity (SAOS-2 [10]) | Activity (A2780 [12]) | Activity (Jurkat [13]) | Activity (PANC-1 [14]) | Activity (MOLT-4 [15]) | Cell viability relative to control (HT-29 [18])
